Data set [1] concerns T. cruzi epimastigotes (RA strain). The experiment in a line: [3H] thymidine uptake assay, growth inhibition of T. cruzi epimastigotes. It is filed as cell-based. Particulars: Trypanosoma cruzi, 72 h of incubation. The protocol:
T. cruzi epimastigotes (RA strain) were grown in liver infusion tryptose medium (LIT) supplemented with 10% fetal bovine serum (Natocor). Cultures were routinely maintained by weekly passages at 28°C. T. cruzi trypomastigotes were routinely maintained by infecting 21-day-old male CF1 mice. T. cruzi amastigotes were obtained by infecting J774 cells with bloodstream trypomastigotes.
S. sonchifolius OE and fractions F 1A–F 5B were tested for trypanocidal activity against T. cruzi epimastigotes, at final concentrations of 10 μg/mL and 100 μg/mL, by a [^3H] thymidine uptake assay as previously described. Compounds 1, 2, and 3 were tested at final concentrations ranging from 0.01 μg/mL to 50 μg/mL. Stock solutions of the samples were prepared in ethanol : water (1 : 1). Epimastigotes in exponential growth phase were adjusted to 1.5 × 10^6 parasites/mL and seeded on 96-well plates in the presence of the different concentrations of OE, fractions, or compounds. Parasites were cultured in triplicate for 72 h. Control parasites were cultured in absence or presence of benznidazole (20 μM; Roche-Rio de Janeiro, Brazil). Percentage inhibition was calculated as 100 − {[(cpm of treated parasites)/(cpm of untreated parasites)] × 100}. The compound concentration at which the parasite growth was inhibited by 50% (inhibitory concentration 50, IC50) was determined after 72 h.

The next data set relates to T. cruzi epimastigotes. In words: Recovery of epimastigotes after 24 h treatment (residual effect), Neubauer chamber counting. It is filed as cell-based, Trypanosoma cruzi. Particulars: for reduction in the replication rate / amount of parasites after treatment: epimastigotes; for reduction in the replication rate: at 24 h after treatment; for amount of parasites after treatment: 24 h treatment. The protocol: To determine whether the parasites could recover after treatment with the pure compounds, T. cruzi epimastigotes were incubated with compounds 1–3 (0.1, 1, and 10 μg/mL) for 24 h. Parasites were then centrifuged at 3000 rpm for 10 min, resuspended in fresh medium, and incubated for 2 additional days, counting the number of parasite in a Neubauer chamber on a daily basis.

The next data set has as its system T. cruzi trypomastigotes. In words: Trypanocidal effect on bloodstream trypomastigotes, counting of remaining live parasites. The class given is cell-based, Trypanosoma cruzi. To be noted: 24 h; for IC50: Trypanosoma cruzi. How it is done: The trypanocidal effect of compounds 1, 2, and 3 was also tested on bloodstream trypomastigotes as previously described. Briefly, mouse blood containing trypomastigotes was adjusted to a concentration of 1.5 × 10^6 parasite/mL and seeded (150 μL/well) by duplicate into a 96-well microplate, in the presence of each compound (1 to 50 μg/mL, final concentration). Plates were incubated for 24 h, and the remaining live parasites were counted in a haemocytometer.

In the next data set the test system is T. cruzi amastigotes. In words: Intracellular amastigotes in J774 macrophages, β-galactosidase/CPRG assay. The class given is cell-based, Trypanosoma cruzi. To be noted: for selectivity index (SI): CC50 Vero cells divided by IC50 T. cruzi amastigotes; for IC50: Trypanosoma cruzi, intracellular amastigotes in J774 macrophages, 48 h after addition. How it is done:
To evaluate the effect of compounds 1–3 on intracellular forms of T. cruzi, 96-well plates were seeded with J774 murine macrophages at 5 × 10^3 per well in 100 μL of culture medium and incubated for 2 h at 37°C in a 5% CO2 atmosphere. Cells were infected with transfected blood trypomastigotes expressing β-galactosidase at a parasite : cell ratio of 10 : 1. After 2 h of coculture, plates were washed twice with PBS to remove free parasites and compounds 1–3 were added at 0.1–50 μg/mL per well in 150 μL of fresh complete RPMI medium without phenol red (Gibco, Rockville, MD). Controls included infected nontreated cells (100% infection control) and uninfected cells (0% infection control). The assay was developed 48 h later by addition of chlorophenol red-β-d-galactopyranoside (100 μM CPRG) and 1% Nonidet P40. Plates were incubated for 4–6 h at 37°C. Wells with galactosidase activity turned the media from yellow to red, and this reaction was quantified at 590 nm in a microplate reader (Bio-Rad Laboratories, Hercules, CA). Percentage inhibition was calculated as 100 − {[(absorbance of treated infected cells)/(absorbance of untreated infected cells)] × 100} and the IC50 value calculated.
The selectivity index (SI) of each compound was calculated as the CC50 obtained with Vero cells divided by the IC50 obtained against T. cruzi amastigotes.

A short description of another data set: MTT cytotoxicity assay. It is filed as cell-based. Particulars: African green monkey, Vero cells. How it is done:
The cytotoxic effect of compounds 1, 2, and 3 on Vero cells was evaluated by using the MTT tetrazolium salt (3-(4,5-dimethylthiazol-2-yl)-2,5-diphenyltetrazolium bromide) (Sigma) colorimetric assay. Cells (5 × 10^4 cells/well) were seeded at a final volume of 150 μL in a flat-bottom 96-well microplate and cultured at 37°C in a 5% CO2 atmosphere in the absence or presence of increasing concentrations of the compounds (1–50 μg/mL). After 24 h, MTT was added at a final concentration of 1.5 mg/mL and plates were incubated for 2 h at 37°C. The purple formazan crystals were completely dissolved by adding 150 μL of ethanol, and the absorbance was detected at 570 nm in a microplate reader. Results were calculated as the ratio between optical density in the presence and absence of the compound multiplied by 100. The 50% cytotoxic concentration (CC50) was calculated for each compound. All experiments were made in duplicate.

Setting [2] is: 10 μg/mL for 24 h, then 2 days in fresh medium.

The term IC50 denotes the concentration that gives 50% inhibition. High values mean weaker potency in that assay, low ones greater potency in that assay. For orientation: CC50 means the concentration at which the toxic effect on the cells reaches its halfway point. A higher CC50 goes with better tolerance by the cells.

Structures are written as SMILES. Several values for one entry are separate records, joined by “and”; a condition that tells them apart may be missing. Identical values can stand only once. Entries after “also recorded” stand apart in the source; their conditions may differ.

Turning to `C=C1C(=O)O[C@H]2[C@H]1[C@H](OC(=O)[C@@]1(C)O[C@H]1C)[C@@H](OC(C)=O)/C(C(=O)OC)=C\CC[C@@]1(C)O[C@H]21` [enhydrin, 4α,5β-epoxy-8β-(2′S,3′S)-epoxyangeloyloxy-9α-acetyloxy-1(10)E,11(13)-germacradien-12,6α-olide-14-oic-acid methyl ester], the concentration for half-maximal inhibition (IC50) is 840 nM and 0.39 µg/mL in data set [1]; 33.4 µM and 15.5 µg/mL in the data set on T. cruzi trypomastigotes; 5.17 µM and 2.4 µg/mL with T. cruzi amastigotes. Also, in the data set on T. cruzi epimastigotes (setting [2]), the “recovery of epimastigote replication after removal of compound” value (“recovery of epimastigote replication” for short) is on record as “not able to recover their replication rate; also recorded: no recuperation of the epimastigotes was observed; also recorded: not able to recover their initial replication rates”. In addition, the “reduction in the replication rate” value in the data set with T. cruzi epimastigotes (1 μg/mL) was about 50%. In addition, the “amount of parasites after treatment” value in the data set on T. cruzi epimastigotes (10 μg/mL) is given as “drastic reduction in the amount of parasites”. Further, in the data set with T. cruzi amastigotes, the “selectivity index (SI)” value is listed as 9. In addition, the CC50 at 24 h in the data set “MTT cytotoxicity assay” is 46.5 µM and 21.6 µg/mL.

For the compound `C=C1C(=O)O[C@@H]2/C=C(\C)CC/C=C(/C(=O)OC)[C@H](OC(C)=O)[C@@H](OC(=O)/C(C)=C\C)[C@@H]12` [polymatin B, 8β-angeloyloxi-9α-acetyloxi-1(10)E,4E,11(13)-germacratrien-12,6α-olide-14-oic acid methyl ester], the IC50 in data set [1] is 4.9 µM and 2.12 µg/mL. The “recovery of epimastigote replication” value in the data set on T. cruzi epimastigotes (0.1 μg/mL for 24 h, then fresh medium) was “recovered their replication rates at values similar to the control parasites”. In addition, the “reduction in the replication rate” value with T. cruzi epimastigotes (10 μg/mL) is listed as about 50%. In addition, in the data set with T. cruzi trypomastigotes (1 to 50 μg/mL), the activity against trypomastigotes entry is listed as “not active”. For the same compound, in the data set on T. cruzi amastigotes, the “selectivity index (SI)” value is 16.3; the IC50 is 9.02 µM and 3.9 µg/mL. Also, in “MTT cytotoxicity assay”, the 50% cytotoxic concentration (CC50) at 24 h is 147 µM and 63.7 µg/mL.

With `C=C1C(=O)O[C@@H]2/C=C(\C)CC/C=C(/C(=O)OC)[C@H](OC(C)=O)[C@@H](OC(=O)[C@]3(C)O[C@@H]3C)[C@@H]12` [uvedalin, 8β-(2′S,3′S)-epoxyangeloyloxy-9α-acetyloxy-1(10)E,4E,11(13)-germacratrien-12,6α-olide-14-oic acid methyl ester], the IC50 is 1.09 µM and 0.49 µg/mL in data set [1]; 25 µM and 11.2 µg/mL in the data set on T. cruzi trypomastigotes; 3.34 µM and 1.5 µg/mL with T. cruzi amastigotes. Moreover, the “recovery of epimastigote replication” value with T. cruzi epimastigotes (setting [2]) is given as “not able to recover their replication rate; also recorded: no recuperation of the epimastigotes was observed; also recorded: not able to recover their initial replication rates”. Further, in the data set with T. cruzi epimastigotes (1 μg/mL), the “reduction in the replication rate” value is recorded as about 50%. Moreover, the “amount of parasites after treatment” value in the data set on T. cruzi epimastigotes (10 μg/mL) is reported as “drastic reduction in the amount of parasites”. In addition, the “selectivity index (SI)” value in the data set with T. cruzi amastigotes was 14. In “MTT cytotoxicity assay”, the CC50 at 24 h was 46.8 µM and 21 µg/mL.

The values above are taken from PMC3690263, “Trypanocidal Activity of Smallanthus sonchifolius: Identification of Active Sesquiterpene Lactones by Bioassay-Guided Fractionation” (Evidence-based Complementary and Alternative Medicine : eCAM, 2013).
